Measured values from patent US8377945B2, “Small molecule inhibitors of spleen tyrosine kinase (SYK)” (Rigel Pharmaceuticals Inc., priority 2009, dated 2013).

Key:
[1] = tested on: Human mast cells (CHMC cells); experiment: Tryptase release assay (mast cell degranulation induced by anti-IgG FcγR cross-linking); assay type: cell-based; conditions: IC50 of tryptase release from human mast cells after anti-IgG stimulation, read-out: LD Tryptase
Description: Compounds were assayed for inhibition of mast cell activation induced by FcγR cross-linking by measuring the activity of tryptase released upon degranulation as follows:
Human mast cells were cultured and differentiated from […] progenitor cell as described in U.S. Patent Publication No. 2005-234049, incorporated herein by reference. For example, 65 μl of various concentrations of the compound to be assayed were prepared in MT (137 mM NaCl, 2.7 mM KCl, 1.8 mM CaCl2, 1.0 mM MgCl2, 5.6 mM Glucose, 20 mM Hepes (pH 7.4), 0.1% Bovine Serum Albumin, (Sigma A4503)) containing 2% MeOH and 1% DMSO, or control buffer were added to duplicate 96-well V-bottom plates. Pelleted and resuspended (in warm MT) CHMC cells (65 μl) were added to each 96-well plate, mixed and incubated for 1 hour at 37° C. 25 μl of 6× anti-IgG Rabbit anti-human IgG, Affinity purified (Bethyl Laboratories Cat No. A80-105A3) final concentration 1 μg/ml, was added to the test wells. MT (25 μl) was added to control wells. After a 60-minute incubation at 37° C., cells and cell debris were pelleted by centrifugation at 1000 rpm for 10 min and tryptase and leukotriene C4 levels were measured.
To measure tryptase levels, 25 μl of supernatant from each well was transferred to a fresh 96-well black bottom plate, to which 100 μl of fresh tryptase substrate solution [(Z-Ala-Lys-Arg-AMC2TFA; Enzyme Systems Products, #AMC-246)] 1:2000 in tryptase assay buffer [0.1 M Hepes (pH 7.5), 10% w/v Glycerol, 10 μM Heparin (Sigma H-4898) 0.01% NaN3] was added. After 30 minute incubation at room temperature, the optical density of the plates is measured at 355 nm/460 nm on a spectrophotometric plate reader. Table 2 provides the IC50 values.

Syk kinase = biological target: T1, Syk kinase (Homo sapiens, UniProt P43405); experiment: ELISA-based Syk kinase assay (phosphorylation of HS1 peptide substrate by isolated Syk kinase); assay type: biochemical; conditions: IC50 of Syk kinase inhibition; 2 μM ATP, 2 μM peptide substrate
T1 construct: purchased Millipore 14-314
Description: Compounds were tested for the ability to inhibit Syk kinase catalyzed phosphorylation of a peptide substrate in an assay with isolated Syk kinase.
An assay was carried out in a Costar white 96 well plate (Fisher Scientific, Cat No. 07-200-591) coated overnight with 0.01 mg/ml Neutravidin (Pierce, 100 μl/well) at 4° C. Neutravidin pre-coated 96 well plates were blocked with 2% BSA in PBST buffer for at least 1 hour before starting the assay at room temperature. Serially diluted compound stock solution containing a subject compound was prepared separately in DMSO solution starting from 300 μM and 2 μl of this diluted compound (3% DMSO final concentration) was added directly to neutravidin coated assay plate containing 55.5 μl/well of kinase reaction buffer composed of 20 mM HEPES, pH 7.4, 5 mM MgCl2, 2 mM MnCl2, 1 mM DTT, 0.01% Tween 20 pre-mixed with ATP and kinase substrate (HS1 peptide). Reaction was initiated by adding of 2.5 μl/well Syk kinase (Millipore, Cat No. 14-314) resulting in a final reaction volume of 60 μl and then the reaction was allowed to continue for 30 minutes at room temperature. Final enzyme reaction conditions were 20 mM HEPES, pH 7.4, 5 mM MgCl2, 2 mM MnCl2, 1 mM DTT, 0.01% Tween 20, 0.25 ng Syk, 2 μM ATP, 2 μM peptide substrate (Biotin-EQEDEPEGDYEEVLE-CONH2, SynPep Corporation). After completing the reaction, assay plate was washed three times with PBST and incubated for 1 hour at room temperature with 100 μl/well of phosphopeptide detection antibody solution prepared by mixing 1-1000 diluted mouse anti-pTyr monoclonal antibody (Cell Signal Technology, Cat No. 9411) and 1-1000 diluted goat HRP-conjugated anti-mouse IgG (Jackson Immunoresearch, Cat. No. 115-035-003). Before developing the plate with supersignal ELISA pico chemiluminescent substrate (Pierce), plate was washed three times again with PBST and were read on a SpectraMax M5 microplate reader (Moleculear Devices).

SMILES | IC50 [1] [µM] | IC50 (Syk kinase) [µM]
COc1cc(-c2[nH]c3c(C#N)cnn3c2Nc2ccc(CNC(C)=O)cc2)cc(OC)c1OC [Compound 72] | < 10 | 0.51 to 2.99
COC(=O)COc1ccc(-c2[nH]c3c(C#N)cnn3c2Nc2ccc3c(c2)OCCO3)cc1OC [Compound 85] | < 10 | < 0.5
COc1ccc(Nc2c(-c3ccc(OCCO)c(OC)c3)[nH]c3c(C#N)cnn23)cc1OC [Compound 101] | < 10 | 0.51 to 2.99
COc1ccc(Nc2c(-c3ccc(OC)c(OC4CCCC4)c3)[nH]c3c(C#N)cnn23)cc1OC [Compound 106] | < 10 | < 0.5
COCCOc1ccc(-c2[nH]c3c(C#N)cnn3c2Nc2ccc(OC)c(OC)c2)cc1OC [Compound 108] | < 10 | < 0.5
COC(=O)COc1ccc(-c2[nH]c3c(C#N)cnn3c2Nc2ccc(OC)c(OC)c2)cc1 [Compound 113] | < 10 | 0.51 to 2.99
COc1ccc(Nc2c(-c3cccc(NS(C)(=O)=O)c3)[nH]c3c(C#N)cnn23)cc1OC [Compound 114] | < 10 | 0.51 to 2.99
COc1cc(Nc2c(-c3ccc(OCCO)c(OC)c3)[nH]c3c(C#N)cnn23)ccc1F [Compound 116] | < 10 | < 0.5
COc1cc(Nc2c(-c3cc(O)c(OC)c(OC)c3)[nH]c3c(C#N)cnn23)ccc1F [Compound 118] | < 10 | < 0.5
COc1cc(Nc2c(-c3ccc(OC)c(OC4CCCC4)c3)[nH]c3c(C#N)cnn23)ccc1F [Compound 119] | < 10 | 0.51 to 2.99
COc1ccc(Nc2c(-c3ccc(OCCN4CCOCC4)cc3)[nH]c3c(C#N)cnn23)cc1OC [Compound 124] | < 10 | 0.51 to 2.99
COc1ccc(Nc2c(-c3ccc(OCC(N)=O)c(OC)c3)[nH]c3c(C#N)cnn23)cc1OC [Compound 135] | < 10 | < 0.5
COc1cc(Nc2c(-c3ccc(OC)c(OCC(N)=O)c3)[nH]c3c(C#N)cnn23)ccc1F [Compound 138] | < 10 | 0.51 to 2.99
COc1cc(Nc2c(-c3ccc(OCC(N)=O)c(OC)c3)[nH]c3c(C#N)cnn23)ccc1F [Compound 139] | < 10 | < 0.5
COc1ccc(Nc2c(-c3ccc(OCC(=O)NC4CC4)c(OC)c3)[nH]c3c(C#N)cnn23)cc1OC [Compound 140] | < 10 | < 0.5
COc1cc(-c2[nH]c3c(C#N)cnn3c2Nc2ccc(OC(C)C)c(Cl)c2)cc(OC)c1OC [Compound 141] | < 10 | 0.51 to 2.99
COc1cc(Nc2c(-c3cc(OC)c(OC)c(OC)c3)[nH]c3c(C#N)cnn23)cc(OC)c1 [Compound 142] | < 10 | < 0.5
COc1cc(-c2[nH]c3c(C#N)cnn3c2Nc2ccc(F)c(OC3CCCC3)c2)cc(OC)c1OC [Compound 145] | < 10 | 0.51 to 2.99
COc1cc(-c2[nH]c3c(C#N)cnn3c2Nc2cccc(CNC(=O)c3cccnc3)c2)cc(OC)c1OC [Compound 146] | 11 to 100 | 0.51 to 2.99
COc1cc(-c2[nH]c3c(C#N)cnn3c2Nc2ccc(CNC(=O)c3ccncc3)cc2)cc(OC)c1OC [Compound 150] | 11 to 100 | 0.51 to 2.99
COc1cc(-c2[nH]c3c(C#N)cnn3c2Nc2ccc(CNC(=O)c3cccnc3C)cc2)cc(OC)c1OC [Compound 152] | > 5000 | < 0.5
COc1cc(-c2[nH]c3c(C#N)cnn3c2Nc2ccc(CNC(=O)c3cccnc3OC)cc2)cc(OC)c1OC [Compound 153] | < 10 | < 0.5

Results, then the compound that gave them:

IC50 [1] [µM] | IC50 (Syk kinase) [µM] | SMILES
< 10 | < 0.5 | COc1cc(Nc2c(-c3cc(OC)c(OC)c(OC)c3)[nH]c3c(C#N)cnn23)ccc1F [Compound 87]
101 to 5000 | 0.51 to 2.99 | N#Cc1cnn2c(Nc3ccc(Br)cc3)c(-c3ccc(C(N)=O)cc3)[nH]c12 [Compound 98]
< 10 | < 0.5 | COc1ccc(Nc2c(-c3cc(O)c(OC)c(OC)c3)[nH]c3c(C#N)cnn23)cc1OC [Compound 100]
11 to 100 | < 0.5 | COc1ccc(Nc2c(-c3ccc(C(N)=O)cc3)[nH]c3c(C#N)cnn23)cc1OC [Compound 103]
< 10 | 0.51 to 2.99 | COc1ccc(Nc2c(-c3ccc(N4CCOCC4)cc3)[nH]c3c(C#N)cnn23)cc1OC [Compound 104]
11 to 100 | 0.51 to 2.99 | COc1ccc(Nc2c(-c3cccc(N4CCOCC4)c3)[nH]c3c(C#N)cnn23)cc1OC [Compound 105]
< 10 | 0.51 to 2.99 | COc1ccc(Nc2c(-c3ccc(OCCN4CCCC4=O)cc3)[nH]c3c(C#N)cnn23)cc1OC [Compound 107]
11 to 100 | 0.51 to 2.99 | COc1cc(Nc2c(-c3ccc4c(c3)NC(=O)CO4)[nH]c3c(C#N)cnn23)ccc1F [Compound 109]
< 10 | 0.51 to 2.99 | COc1ccc(Nc2c(-c3cccc(O)c3)[nH]c3c(C#N)cnn23)cc1OC [Compound 112]
> 5000 | 0.51 to 2.99 | COc1cc(Nc2c(-c3ccc(C(N)=O)cc3)[nH]c3c(C#N)cnn23)ccc1F [Compound 117]
< 10 | 0.51 to 2.99 | COc1cc(-c2[nH]c3c(C#N)cnn3c2Nc2ccc(F)c(C)c2)cc(OC)c1OC [Compound 120]
< 10 | 0.51 to 2.99 | COCCOc1ccc(-c2[nH]c3c(C#N)cnn3c2Nc2ccc(F)c(OC)c2)cc1OC [Compound 122]
< 10 | 0.51 to 2.99 | COc1ccc(Nc2c(-c3ccc(OC)c(OCC(N)=O)c3)[nH]c3c(C#N)cnn23)cc1OC [Compound 125]
< 10 | < 0.5 | COc1ccc(Nc2c(-c3cc(OC)c(OC)c(OC)c3)[nH]c3c(C#N)cnn23)cc1F [Compound 127]
< 10 | 0.51 to 2.99 | COc1cc(Nc2c(-c3cc(OC)c(OC)c(OC)c3)[nH]c3c(C#N)cnn23)ccc1Cl [Compound 132]
< 10 | 0.51 to 2.99 | COc1cc(-c2[nH]c3c(C#N)cnn3c2Nc2ccc(F)c(OC(C)C)c2)cc(OC)c1OC [Compound 133]
< 10 | 0.51 to 2.99 | COc1ccc(Nc2c(-c3cc(C)c(OC)c(C)c3)[nH]c3c(C#N)cnn23)cc1OC [Compound 136]
< 10 | < 0.5 | COc1cc(-c2[nH]c3c(C#N)cnn3c2Nc2ccc3c(c2)NC(=O)CO3)cc(OC)c1OC [Compound 137]
< 10 | < 0.5 | COc1cc(-c2[nH]c3c(C#N)cnn3c2Nc2cc(F)c(OC)c(F)c2)cc(OC)c1OC [Compound 143]
< 10 | 0.51 to 2.99 | CCOc1cc(Nc2c(-c3cc(OC)c(OC)c(OC)c3)[nH]c3c(C#N)cnn23)ccc1F [Compound 144]
< 10 | < 0.5 | COc1cc(-c2[nH]c3c(C#N)cnn3c2Nc2cccc(CNC(=O)c3ccccn3)c2)cc(OC)c1OC [Compound 147]
101 to 5000 | < 0.5 | COc1cc(-c2[nH]c3c(C#N)cnn3c2Nc2cccc(CNC(=O)c3ccncc3)c2)cc(OC)c1OC [Compound 148]
< 10 | 0.51 to 2.99 | COc1cc(-c2[nH]c3c(C#N)cnn3c2Nc2ccc(CNC(=O)c3ccccn3)cc2)cc(OC)c1OC [Compound 149]
> 5000 | 0.51 to 2.99 | COc1cc(-c2[nH]c3c(C#N)cnn3c2Nc2ccc(CNC(=O)c3ccc(C#N)nc3)cc2)cc(OC)c1OC [Compound 151]
